IC50 data for 13 molecules are collected here from patent US20220168427A1 (Ranok Therapeutics (Hangzhou) Co. Ltd., priority 2019, published 2022).

For one series, the system named is MV4-11 cells. In words: MV4-11 Cell Cytotoxicity Assay. The series is classed as cell-based, human. The settings on record: human, MV4-11 cells, CCK-8. The text has this:
% Inhibition=100−(D−B)/(S−B)*100%.
S: The absorbance of the maximum (cells with DMSO)
B: The absorbance of the minimum (medium with DMSO)

Another series concerns the target T1, BRD4 (BD1+BD2) (Homo sapiens, UniProt O60885).
T1 construct: 1.8 μg/ml recombinant BRD4 (BD1+BD2 domains) protein
The following applies: read-out: BRD4 Binding Potency.

The target in a further series is HSP90α (Homo sapiens, UniProt P07900). In words: HSP90α Binding Fluorescent Polarization (FP) Assay. The settings on record: competition with FITC-geldanamycin; read-out: HSP90 Binding Potency. A digest of the protocol:
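Competitive FP assay in which compound displaces FITC-geldanamycin from recombinant HSP90α (28 μg/ml before addition) in BSA-containing buffer. Compounds in 3-fold series from 40 μM to 2.0 nM (dilution-plate concentrations), tested in duplicate. Readings after 30, 60 and 120 min at 25 °C; background-subtracted mP fitted to four-parameter log[inhibitor]-response curve.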

pIC50: −log10 of the molar value.

For orientation: IC50 means the concentration that gives 50% inhibition. Read a low IC50 as inhibition by little substance.

Molecule `Cc1sc2c(c1C)C(c1ccc(Cl)cc1)=N[C@@H](CC(=O)N1CCC(CN[C@@H](C)C(=O)N[C@H](C(=O)N3CCC[C@H]3C(=O)Nc3snnc3-c3ccccc3)C3CCCCC3)CC1)c1nnc(C)n1-2` [Compound 129, (S)-1-((S)-2-((S)-2-(((1-(2-((S)-4-(4-chlorophenyl)-2,3,9-trimethyl-6H-thieno[3,2-f][1,2,4]triazolo[4,3-a][1,4]diazepin-6-yl)acetyl)piperidin-4-yl)methyl)amino)propanamido)-2-cyclohexylacetyl)-N-(4-phenyl-1,2,3-thiadiazol-5-yl)pyrrolidine-2-carboxamide] had a half-inhibitory concentration (IC50) at 72 h in the series on MV4-11 cells above 1000 nM. Moreover, the pIC50 at BRD4 (BD1+BD2) and at HSP90α was below 6.00 in each case.

Molecule `Cc1sc2c(c1C)C(c1ccc(Cl)cc1)=N[C@@H](CCN(C)CCOc1ccc(-n3c(O)nnc3-c3cc(C(C)C)c(O)cc3O)cc1)c1nnc(C)n1-2` [Compound 65, (S)-4-(4-(4-(2-((2-(4-(4-chlorophenyl)-2,3,9-trimethyl-6H-thieno[3,2-f][1,2,4]triazolo[4,3-a][1,4]diazepin-6-yl)ethyl)(methyl)amino)ethoxy)phenyl)-5-hydroxy-4H-1,2,4-triazol-3-yl)-6-isopropylbenzene-1,3-diol] returned an IC50 at 72 h in the series on MV4-11 cells of 100 to 1000 nM. Further, the pIC50 was below 6.00 at BRD4 (BD1+BD2) and 6.00 to 7.00 on HSP90α.

Turning to `Cc1sc2c(c1C)C(c1ccc(Cl)cc1)=N[C@@H](CCNCCOCCOc1ccc(-n3c(O)nnc3-c3cc(C(C)C)c(O)cc3O)cc1)c1nnc(C)n1-2` [Compound 63, (S)-4-(4-(4-(2-(2-((2-(4-(4-chlorophenyl)-2,3,9-trimethyl-6H-thieno[3,2-f][1,2,4]triazolo[4,3-a][1,4]diazepin-6-yl)ethyl)amino)ethoxy)ethoxy)phenyl)-5-hydroxy-4H-1,2,4-triazol-3-yl)-6-isopropylbenzene-1,3-diol, trifluoroacetic acid], the IC50 at 72 h with MV4-11 cells was 100 to 1000 nM. Also, the pIC50 on BRD4 (BD1+BD2) and at HSP90α was 6.00 to 7.00 in each case.

On to `Cc1sc2c(c1C)C(c1ccc(Cl)cc1)=NC(CC(=O)N1CCC(Cc3ccc(CN(C)Cc4ccc(-n5c(C(=O)NCC(F)(F)F)nnc5-c5cc(C(C)C)c(O)cc5O)cc4)cc3)CC1)c1nnc(C)n1-2` (stereo in doubt) [Compound 84, (S)-4-(4-(((4-((1-(2-(4-(4-chlorophenyl)-2,3,9-trimethyl-6H-thieno[3,2-f][1,2,4]triazolo[4,3-a][1,4]diazepin-6-yl)acetyl)piperidin-4-yl)methyl)benzyl)(methyl)amino)methyl)phenyl)-5-(2,4-dihydroxy-5-isopropylphenyl)-N-(2,2,2-trifluoroethyl)-4H-1,2,4-triazole-3-carboxamide, trifluoroacetic acid], for which the IC50 at 72 h in the series on MV4-11 cells was below 100 nM. For the same molecule, the pIC50 at BRD4 (BD1+BD2) is below 6.00; at HSP90α, 6.00 to 7.00.

As for `Cc1sc2c(c1C)C(c1ccc(Cl)cc1)=N[C@@H](CC(=O)N(C)CCOc1ccc(CN(C)Cc3ccc(-n4c(O)nnc4-c4cc(C(C)C)c(O)cc4O)cc3)cc1)c1nnc(C)n1-2` [Compound 99, (S)-2-(4-(4-chlorophenyl)-2,3,9-trimethyl-6H-thieno[3,2-f][1,2,4]triazolo[4,3-a][1,4]diazepin-6-yl)-N-(2-(4-(((4-(3-(2,4-dihydroxy-5-isopropylphenyl)-5-hydroxy-4H-1,2,4-triazol-4-yl)benzyl)(methyl)amino)methyl)phenoxy)ethyl)-N-methylacetamide, formic acid], the IC50 at 72 h in the series on MV4-11 cells is below 100 nM. Moreover, the pIC50 at BRD4 (BD1+BD2) was below 6.00; at HSP90α, 6.00 to 7.00.

`COc1cccc(-c2cc(C(=O)Nc3ccc(-c4ccc(OC5CCN(C(=O)CNC(=O)C[C@@H]6N=C(c7ccc(Cl)cc7)c7c(sc(C)c7C)-n7c(C)nnc76)CC5)cc4OCCN(C)C)cc3)ccc2OC)c1` [Compound 138] yielded a 50% inhibitory concentration (IC50) at 72 h in the series on MV4-11 cells below 100 nM. Moreover, the pIC50 is above 7.00 on BRD4 (BD1+BD2) and below 6.00 at HSP90α.

With `CC[C@@H](C)Nc1cc(C(=O)NC2C[C@H]3CC[C@H](C2)N3c2ccc(C(=O)Nc3ccc(CN4CCN(CC5CCN(C(=O)C[C@@H]6N=C(c7ccc(Cl)cc7)c7c(sc(C)c7C)-n7c(C)nnc76)CC5)CC4)cc3)cn2)c(C)cc1C(N)=O` (stereo partly drawn) [Compound 26, 5-((R)-sec-butylamino)-N1-((1R,5R)-8-(5-((4-((4-((1-(2-((6S)-4-(4-chlorophenyl)-2,3,9-trimethyl-6H-thieno[3,2-f][1,2,4]triazolo[4,3-a][1,4]diazepin-6-yl)acetyl)piperidin-4-yl)methyl)piperazin-1-yl)methyl)phenyl)carbamoyl)pyridin-2-yl)-8-azabicyclo[3.2.1]octan-3-yl)-2-methylterephthalamide, formic acid], the IC50 at 72 h in the series on MV4-11 cells was below 100 nM. The results for the pIC50 on BRD4 (BD1+BD2) and on HSP90α were 6.00 to 7.00 and below 6.00, respectively.

For `CCN(Cc1ccc(OCCCNC(=O)C[C@@H]2N=C(c3ccc(Cl)cc3)c3c(sc(C)c3C)-n3c(C)nnc32)cc1)Cc1ccc(-n2c(O)nnc2-c2cc(C(C)C)c(O)cc2O)cc1` [Compound 100, (S)-2-(4-(4-chlorophenyl)-2,3,9-trimethyl-6H-thieno[3,2-f][1,2,4]triazolo[4,3-a][1,4]diazepin-6-yl)-N-(3-(4-(((4-(3-(2,4-dihydroxy-5-isopropylphenyl)-5-hydroxy-4H-1,2,4-triazol-4-yl)benzyl)(ethyl)amino)methyl)phenoxy)propyl)acetamide, formic acid], in the series with MV4-11 cells, the IC50 at 72 h was below 100 nM. The pIC50 at BRD4 (BD1+BD2) and at HSP90α was 6.00 to 7.00 throughout.

In the series on MV4-11 cells, `CCc1cc(-c2nnc(C(=O)NCCN(CC)CC)n2-c2ccc(CN3CCN(CC4CCN(C(=O)C[C@@H]5N=C(c6ccc(Cl)cc6)c6c(sc(C)c6C)-n6c(C)nnc65)CC4)CC3)cc2)c(O)cc1O` [Compound 104, (S)-4-(4-((4-((1-(2-(4-(4-chlorophenyl)-2,3,9-trimethyl-6H-thieno[3,2-f][1,2,4]triazolo[4,3-a][1,4]diazepin-6-yl)acetyl)piperidin-4-yl)methyl)piperazin-1-yl)methyl)phenyl)-N-(2-(diethylamino)ethyl)-5-(5-ethyl-2,4-dihydroxyphenyl)-4H-1,2,4-triazole-3-carboxamide, trifluoroacetic acid] came in with an IC50 at 72 h below 100 nM. Also, the pIC50 on BRD4 (BD1+BD2) is above 7.00; at HSP90α it was 6.00 to 7.00.

In the series with MV4-11 cells, `CC[C@@H](C)Nc1cc(C(=O)NC2C[C@H]3CC[C@H](C2)N3c2ccc(C(=O)c3ccc(CN4CCN(CC5CCN(C(=O)C[C@@H]6N=C(c7ccc(Cl)cc7)c7c(sc(C)c7C)-n7c(C)nnc76)CC5)CC4)cc3)cn2)c(C)cc1C(N)=O` (stereo partly drawn) [Compound 25, 5-(((R)-sec-butyl)amino)-N1-((1R,3r,5S)-8-(5-(4-((4-((1-(2-((S)-4-(4-chlorophenyl)-2,3,9-trimethyl-6H-thieno[3,2-f][1,2,4]triazolo[4,3-a][1,4]diazepin-6-yl)acetyl)piperidin-4-yl)methyl)piperazin-1-yl)methyl)benzoyl)pyridin-2-yl)-8-azabicyclo[3.2.1]octan-3-yl)-2-methylterephthalamide] showed a half-maximal inhibitory concentration (IC50) at 72 h of 100 to 1000 nM. The pIC50 at BRD4 (BD1+BD2) is 6.00 to 7.00; at HSP90α it was below 6.00.

As to `CCNC(=O)c1nnc(-c2cc(C(C)C)c(O)cc2O)n1-c1ccc(CC2CCN(CC3CCN(C(=O)C[C@@H]4N=C(c5ccc(Cl)cc5)c5c(sc(C)c5C)-n5c(C)nnc54)CC3)CC2)cc1` [Compound 90, (S)-4-(4-((1-((1-(2-(4-(4-chlorophenyl)-2,3,9-trimethyl-6H-thieno[3,2-f][1,2,4]triazolo[4,3-a][1,4]diazepin-6-yl)acetyl)piperidin-4-yl)methyl)piperidin-4-yl)methyl)phenyl)-5-(2,4-dihydroxy-5-isopropylphenyl)-N-ethyl-4H-1,2,4-triazole-3-carboxamide], the IC50 at 72 h in the series with MV4-11 cells was below 100 nM. Besides, the pIC50 on BRD4 (BD1+BD2) and at HSP90α was 6.00 to 7.00 throughout.

On to `Cc1sc2c(c1C)C(c1ccc(Cl)cc1)=N[C@@H](CC(=O)N(C)[C@H](C)c1ccc(CN3CCN(Cc4ccc(-n5c(O)nnc5-c5cc(C(C)C)c(O)cc5O)cc4)CC3)cc1)c1nnc(C)n1-2` [Compound 92, 2-((S)-4-(4-chlorophenyl)-2,3,9-trimethyl-6H-thieno[3,2-f][1,2,4]triazolo[4,3-a][1,4]diazepin-6-yl)-N—((R)-1-(4-((4-(4-(3-(2,4-dihydroxy-5-isopropylphenyl)-5-hydroxy-4H-1,2,4-triazol-4-yl)benzyl)piperazin-1-yl)methyl)phenyl)ethyl)-N-methylacetamide, trifluoroacetic acid], for which the concentration for half-maximal inhibition (IC50) at 72 h in the series on MV4-11 cells lay within 100 to 1000 nM. In addition, the pIC50 on BRD4 (BD1+BD2) and on HSP90α was below 6.00 throughout.

Molecule `Cc1sc2c(c1C)C(c1ccc(Cl)cc1)=N[C@@H](CC(=O)NCC(=O)NCCOc1ccc(-n3c(O)nnc3-c3cc(C(C)C)c(O)cc3O)cc1)c1nnc(C)n1-2` [Compound 54, (S)-2-(4-(4-chlorophenyl)-2,3,9-trimethyl-6H-thieno[3,2-f][1,2,4]triazolo[4,3-a][1,4]diazepin-6-yl)-N-(2-((2-(4-(3-(2,4-dihydroxy-5-isopropylphenyl)-5-hydroxy-4H-1,2,4-triazol-4-yl)phenoxy)ethyl)amino)-2-oxoethyl)acetamide] showed an IC50 at 72 h in the series with MV4-11 cells of 100 to 1000 nM. The pIC50 on BRD4 (BD1+BD2) was 6.00 to 7.00; at HSP90α it was above 7.00.
